The values that follow come from patent EP3723745B1, “PHENOXY ACIDS FOR THE TREATMENT OF NEUROMUSCULAR DISORDERS” (NMD Pharma A/S, priority 2017, dated 2019).

The test addresses T1, CIC-1 channels (Rattus norvegicus, UniProt P35524).
T1 construct: from tissue; host or cells: intact soleus muscle of 12-14-week old Wistar rats
T1 sequence (P35524 1-994): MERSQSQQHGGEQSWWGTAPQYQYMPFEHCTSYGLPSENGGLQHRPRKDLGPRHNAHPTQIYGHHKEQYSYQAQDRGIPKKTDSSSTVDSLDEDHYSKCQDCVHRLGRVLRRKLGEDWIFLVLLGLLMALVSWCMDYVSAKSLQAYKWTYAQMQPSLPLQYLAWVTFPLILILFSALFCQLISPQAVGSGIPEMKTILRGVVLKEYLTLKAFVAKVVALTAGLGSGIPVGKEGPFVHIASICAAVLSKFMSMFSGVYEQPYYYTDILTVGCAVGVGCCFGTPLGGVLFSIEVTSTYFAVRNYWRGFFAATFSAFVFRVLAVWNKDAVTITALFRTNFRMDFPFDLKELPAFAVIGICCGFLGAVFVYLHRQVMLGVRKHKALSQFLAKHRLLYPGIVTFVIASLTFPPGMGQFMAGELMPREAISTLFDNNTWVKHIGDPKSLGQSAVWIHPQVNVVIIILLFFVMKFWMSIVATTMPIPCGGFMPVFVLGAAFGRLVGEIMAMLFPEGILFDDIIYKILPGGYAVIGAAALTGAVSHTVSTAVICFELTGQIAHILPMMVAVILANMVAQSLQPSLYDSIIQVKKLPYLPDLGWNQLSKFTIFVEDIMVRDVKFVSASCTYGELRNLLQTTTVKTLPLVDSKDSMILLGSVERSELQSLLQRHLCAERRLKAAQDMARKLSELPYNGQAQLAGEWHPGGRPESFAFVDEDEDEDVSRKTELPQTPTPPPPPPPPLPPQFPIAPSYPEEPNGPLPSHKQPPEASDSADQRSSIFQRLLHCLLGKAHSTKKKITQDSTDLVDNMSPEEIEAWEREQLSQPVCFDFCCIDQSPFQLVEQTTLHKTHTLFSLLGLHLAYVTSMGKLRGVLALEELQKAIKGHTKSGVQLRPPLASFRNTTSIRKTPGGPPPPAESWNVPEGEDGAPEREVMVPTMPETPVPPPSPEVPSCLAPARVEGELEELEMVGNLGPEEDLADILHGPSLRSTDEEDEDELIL
The experiment in a line: Electrophysiological measurement of compound inhibition of CIC-1 in rat muscle (Gm, three micro-electrodes technique). It is filed as cell-based. The settings on record: reduction of Gm in fibres of whole rat soleus muscles, approx. 30°C; n = number of experiments. The text has this:
Table 2: Inhibition of CIC-1 ion channel using compounds of the invention
Consider `CC(C)[C@H](Oc1ccc(Br)cc1F)C(=O)O` [Compound A-27, (2S)-2-(4-bromo-2-fluorophenoxy)-3-methylbutanoic acid], for which it took 4.5 µM to reach a half-maximal effect (EC50). This lies in the single-digit micromolar range.

In turn, `[2H][C@@](CC)(Oc1ccc(Br)cc1)C(=O)O` [Compound A-60, (2S)-2-(4-bromophenoxy)(2-^2H)butanoic acid] yielded an EC50 of 7.5 ± 1 µM.

As to `O=C(O)[C@H](CCF)Oc1ccc(Br)cc1` [Compound A-87, (2S)-2-(4-bromophenoxy)-4-fluorobutanoic acid], the EC50 was determined as 4.5 ± 0.8 µM.

A word on the EC50: it is the concentration needed to bring the measured effect to its halfway point.
